According to ChEMBL document CHEMBL1201862, “PubChem BioAssay data set” (2004):
Activity calls are given as the source filed them.

What was measured:
[1] = HIV-1 Vif–A3G interaction blockers – biochemical, TR-FRET, GST-Vif 1-94, biotin-A3G peptide, dose response retest, primary screen (AID 1117319); type: functional;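 further: TR-FRET signal of purified GST-Vif binding a biotinylated A3G peptide; inhibitors lower the FRET signal by blocking Vif and A3G binding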
[2] = viability loss in HeLa cells – cytotoxicity control for MgcRacGAP inhibitor project, dose response (AID 624300); type: functional
[3] = biological target: T1, Rac GTPase-activating protein 1 (Homo sapiens, UniProt Q9H0H5); test: blockers of MgcRacGAP-driven Rac1 GTP hydrolysis – biochemical, ADP Hunter fluorescence, primary and confirmatory, confirmation (AID 624330); type: functional
T1 sequence (Q9H0H5 whole entry): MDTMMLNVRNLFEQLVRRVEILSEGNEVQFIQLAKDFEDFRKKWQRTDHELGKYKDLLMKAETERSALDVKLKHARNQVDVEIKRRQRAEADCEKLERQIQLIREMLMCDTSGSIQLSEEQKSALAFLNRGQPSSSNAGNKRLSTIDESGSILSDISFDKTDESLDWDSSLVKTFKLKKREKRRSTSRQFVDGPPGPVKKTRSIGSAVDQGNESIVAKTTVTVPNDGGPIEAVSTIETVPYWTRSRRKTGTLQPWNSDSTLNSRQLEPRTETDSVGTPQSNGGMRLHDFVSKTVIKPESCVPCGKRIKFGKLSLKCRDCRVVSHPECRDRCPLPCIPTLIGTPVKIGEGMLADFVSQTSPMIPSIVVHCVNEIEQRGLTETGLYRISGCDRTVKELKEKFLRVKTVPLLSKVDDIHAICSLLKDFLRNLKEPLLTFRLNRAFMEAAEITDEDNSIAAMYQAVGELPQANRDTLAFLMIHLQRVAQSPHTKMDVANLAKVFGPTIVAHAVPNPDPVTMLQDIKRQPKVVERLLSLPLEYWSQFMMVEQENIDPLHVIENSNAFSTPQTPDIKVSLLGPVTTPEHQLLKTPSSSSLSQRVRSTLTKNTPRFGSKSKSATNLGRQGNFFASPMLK

[4] = viability loss in THP-1 monocytes – THP-1 cells, cytotoxicity control for Vif-APOBEC3G degradation inhibitor project, dose response (AID 1117359); type: functional; conditions: THP-1
Vero = test: viability of Vero cells under compound – cytotoxicity control for flavivirus capping enzyme inhibitors (AID 588742); type: functional; conditions: Chlorocebus sabaeus
Cytochrome P450 1A2 = biological target: T2, Cytochrome P450 1A2 (Homo sapiens, UniProt P05177);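 further: PubChem cytochrome P450 panel assay, CYP1A2 panel member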
T2 sequence (P05177 whole entry): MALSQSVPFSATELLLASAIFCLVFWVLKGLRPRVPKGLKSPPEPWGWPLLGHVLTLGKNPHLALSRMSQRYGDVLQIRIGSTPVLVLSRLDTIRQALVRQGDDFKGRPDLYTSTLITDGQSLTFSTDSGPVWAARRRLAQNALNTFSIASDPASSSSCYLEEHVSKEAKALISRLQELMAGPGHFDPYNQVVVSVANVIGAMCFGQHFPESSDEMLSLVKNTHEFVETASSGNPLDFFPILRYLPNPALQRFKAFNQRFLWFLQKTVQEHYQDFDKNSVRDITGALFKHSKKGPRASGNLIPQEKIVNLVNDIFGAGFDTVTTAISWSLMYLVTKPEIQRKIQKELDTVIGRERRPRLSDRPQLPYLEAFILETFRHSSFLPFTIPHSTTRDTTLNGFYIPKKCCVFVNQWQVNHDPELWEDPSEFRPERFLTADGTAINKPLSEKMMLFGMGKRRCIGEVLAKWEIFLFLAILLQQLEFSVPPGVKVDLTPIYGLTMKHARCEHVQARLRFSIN

Cytochrome P450 2C9 = Cytochrome P450 2C9 (Homo sapiens, UniProt P11712)
Cytochrome P450 2C9, sequence (P11712 whole entry): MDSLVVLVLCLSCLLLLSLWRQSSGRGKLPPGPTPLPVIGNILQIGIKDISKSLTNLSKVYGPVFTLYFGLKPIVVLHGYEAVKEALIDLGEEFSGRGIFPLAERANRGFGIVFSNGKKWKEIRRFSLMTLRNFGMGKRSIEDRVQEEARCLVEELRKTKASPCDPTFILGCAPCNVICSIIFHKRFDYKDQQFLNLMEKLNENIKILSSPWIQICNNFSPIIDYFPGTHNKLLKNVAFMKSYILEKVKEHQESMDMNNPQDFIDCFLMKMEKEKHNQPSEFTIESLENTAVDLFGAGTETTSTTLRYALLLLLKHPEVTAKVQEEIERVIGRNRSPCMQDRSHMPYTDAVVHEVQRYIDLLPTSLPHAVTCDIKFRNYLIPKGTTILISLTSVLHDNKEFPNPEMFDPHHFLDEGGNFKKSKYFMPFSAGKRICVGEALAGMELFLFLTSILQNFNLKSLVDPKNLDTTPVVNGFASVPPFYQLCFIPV

Cytochrome P450 3A4 = Cytochrome P450 3A4 (Homo sapiens, UniProt P08684);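 further: CYP3A4 tested as one member of a cytochrome P450 panel screen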
Cytochrome P450 3A4, sequence (P08684 whole entry): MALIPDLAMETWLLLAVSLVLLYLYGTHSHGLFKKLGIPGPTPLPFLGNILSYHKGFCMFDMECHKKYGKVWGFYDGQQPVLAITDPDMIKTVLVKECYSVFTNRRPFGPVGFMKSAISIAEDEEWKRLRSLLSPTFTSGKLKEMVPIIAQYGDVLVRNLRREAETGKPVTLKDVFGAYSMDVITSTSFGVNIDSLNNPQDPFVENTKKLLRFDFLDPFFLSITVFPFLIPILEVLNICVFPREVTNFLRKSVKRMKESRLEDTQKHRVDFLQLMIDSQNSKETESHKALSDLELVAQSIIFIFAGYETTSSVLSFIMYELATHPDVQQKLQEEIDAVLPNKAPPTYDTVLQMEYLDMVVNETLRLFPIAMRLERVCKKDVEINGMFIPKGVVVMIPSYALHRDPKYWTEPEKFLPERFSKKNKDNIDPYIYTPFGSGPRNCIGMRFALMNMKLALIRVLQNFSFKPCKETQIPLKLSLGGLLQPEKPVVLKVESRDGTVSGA

[5] = fluconazole-exposed Candida albicans growth modulators – fluorescence, retest, confirmation (AID 2467); type: functional, cell-based
[6] = NIH-3T3 fibroblast cytotoxicity, dose response, cytotoxicity control, cell-based, fluorescence, Alamar Blue, secondary assay (AID 2327); type: functional;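 further: NIH-3T3 mouse fibroblasts cultured with fluconazole at 8 µg/mL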
Albumin = Albumin (Bos taurus, UniProt P02769); test: Counterscreen for inhibitors of T-cell receptor (TCR)-CD3 interaction: Fluorescence-based biochemical high throughput dose response assay to identify inhibitors of T-cell receptor (TCR)-CD3 interaction using a TAMRA-labeled BSA probe.; type: functional
Albumin, sequence (P02769 whole entry): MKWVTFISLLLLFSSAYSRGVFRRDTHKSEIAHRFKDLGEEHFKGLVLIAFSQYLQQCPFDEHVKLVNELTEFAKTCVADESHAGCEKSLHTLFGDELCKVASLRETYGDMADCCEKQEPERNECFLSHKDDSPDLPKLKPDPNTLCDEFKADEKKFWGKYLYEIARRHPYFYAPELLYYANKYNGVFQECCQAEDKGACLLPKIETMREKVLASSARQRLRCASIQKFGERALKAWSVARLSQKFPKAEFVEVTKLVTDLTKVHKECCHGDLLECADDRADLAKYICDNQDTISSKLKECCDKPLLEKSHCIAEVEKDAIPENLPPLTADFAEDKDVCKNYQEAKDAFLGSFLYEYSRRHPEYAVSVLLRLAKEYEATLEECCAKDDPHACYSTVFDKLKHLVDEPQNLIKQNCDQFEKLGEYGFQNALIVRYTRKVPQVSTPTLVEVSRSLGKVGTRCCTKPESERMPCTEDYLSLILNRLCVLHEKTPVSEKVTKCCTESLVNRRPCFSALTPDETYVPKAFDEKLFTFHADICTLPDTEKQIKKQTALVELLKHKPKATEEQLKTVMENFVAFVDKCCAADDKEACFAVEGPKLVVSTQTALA

Caspase-3 = biological target: T3, Caspase-3 (Homo sapiens, UniProt P42574); type: functional;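 further: Dose-response selectivity test against caspase-3 for candidate inhibitors of sentrin-specific proteases (SENPs)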
T3 sequence (P42574 whole entry): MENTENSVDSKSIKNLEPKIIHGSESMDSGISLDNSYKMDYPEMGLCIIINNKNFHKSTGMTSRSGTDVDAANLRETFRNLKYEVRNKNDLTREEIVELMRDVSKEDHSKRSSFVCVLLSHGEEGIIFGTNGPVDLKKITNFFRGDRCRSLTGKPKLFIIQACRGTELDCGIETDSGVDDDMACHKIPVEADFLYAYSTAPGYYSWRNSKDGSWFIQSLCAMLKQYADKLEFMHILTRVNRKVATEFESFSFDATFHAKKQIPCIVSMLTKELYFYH

[7] = biological target: T4, Sentrin-specific protease 7 (Homo sapiens, UniProt Q9BQF6); type: functional;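 further: Luminescence-based dose-response confirmation of ultra-high-throughput screening hits, measuring inhibition of SENP7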
T4 sequence (Q9BQF6 whole entry): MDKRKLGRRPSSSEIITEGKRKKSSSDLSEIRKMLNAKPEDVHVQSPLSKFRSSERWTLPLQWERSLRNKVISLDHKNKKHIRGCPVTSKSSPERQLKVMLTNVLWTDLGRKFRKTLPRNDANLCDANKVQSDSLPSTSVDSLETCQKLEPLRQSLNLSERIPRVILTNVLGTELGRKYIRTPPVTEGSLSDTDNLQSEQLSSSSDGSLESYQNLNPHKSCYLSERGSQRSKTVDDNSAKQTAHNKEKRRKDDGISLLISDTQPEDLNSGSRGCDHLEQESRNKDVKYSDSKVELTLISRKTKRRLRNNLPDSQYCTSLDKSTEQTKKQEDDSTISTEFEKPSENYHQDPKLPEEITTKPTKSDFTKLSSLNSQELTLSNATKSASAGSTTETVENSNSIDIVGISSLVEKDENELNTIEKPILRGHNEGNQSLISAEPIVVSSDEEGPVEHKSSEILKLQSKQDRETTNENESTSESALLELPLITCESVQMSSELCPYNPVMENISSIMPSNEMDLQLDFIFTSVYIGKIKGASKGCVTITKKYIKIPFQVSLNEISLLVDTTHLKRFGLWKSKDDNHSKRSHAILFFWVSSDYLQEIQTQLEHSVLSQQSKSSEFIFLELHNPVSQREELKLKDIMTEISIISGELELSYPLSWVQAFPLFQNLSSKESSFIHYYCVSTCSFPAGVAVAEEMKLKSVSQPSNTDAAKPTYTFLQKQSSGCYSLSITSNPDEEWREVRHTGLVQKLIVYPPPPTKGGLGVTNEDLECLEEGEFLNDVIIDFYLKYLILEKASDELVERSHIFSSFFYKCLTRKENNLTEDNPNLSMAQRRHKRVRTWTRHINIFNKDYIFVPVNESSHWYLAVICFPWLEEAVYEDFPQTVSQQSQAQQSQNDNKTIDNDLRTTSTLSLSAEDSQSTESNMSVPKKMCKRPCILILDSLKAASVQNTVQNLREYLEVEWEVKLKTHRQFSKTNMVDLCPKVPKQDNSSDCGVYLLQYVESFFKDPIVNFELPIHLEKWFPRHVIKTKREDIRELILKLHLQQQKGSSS

[8] = biological target: T5, Sentrin-specific protease 8 (Homo sapiens, UniProt Q96LD8); type: functional;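 further: luminescence read-out of SENP8 inhibition, dose-response confirmation following an ultra-high-throughput screen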
T5 sequence (Q96LD8 whole entry): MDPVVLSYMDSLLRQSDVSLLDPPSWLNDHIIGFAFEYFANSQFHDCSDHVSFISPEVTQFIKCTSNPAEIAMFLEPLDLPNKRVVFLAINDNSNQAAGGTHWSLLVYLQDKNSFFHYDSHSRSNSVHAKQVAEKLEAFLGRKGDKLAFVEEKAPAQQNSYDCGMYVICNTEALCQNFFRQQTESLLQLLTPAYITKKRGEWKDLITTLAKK

[9] = blockade of melanocortin 4 receptor signaling – cell-based, plate reader, cherry pick, counter-screen for LGR2 antagonist project, dose response (AID 743444); type: functional;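 further: transfected HEK 293 cells stimulated with alpha-MSH peptide; potency of inhibitors of the alpha-MSH evoked signal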
[10] = biological target: T6, Sentrin-specific protease 6 (Homo sapiens, UniProt Q9GZR1); type: functional;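 further: Luminescence-based dose-response confirmatory assay of SENP6 inhibition, following up an ultra-high-throughput screen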
T6 sequence (Q9GZR1 whole entry): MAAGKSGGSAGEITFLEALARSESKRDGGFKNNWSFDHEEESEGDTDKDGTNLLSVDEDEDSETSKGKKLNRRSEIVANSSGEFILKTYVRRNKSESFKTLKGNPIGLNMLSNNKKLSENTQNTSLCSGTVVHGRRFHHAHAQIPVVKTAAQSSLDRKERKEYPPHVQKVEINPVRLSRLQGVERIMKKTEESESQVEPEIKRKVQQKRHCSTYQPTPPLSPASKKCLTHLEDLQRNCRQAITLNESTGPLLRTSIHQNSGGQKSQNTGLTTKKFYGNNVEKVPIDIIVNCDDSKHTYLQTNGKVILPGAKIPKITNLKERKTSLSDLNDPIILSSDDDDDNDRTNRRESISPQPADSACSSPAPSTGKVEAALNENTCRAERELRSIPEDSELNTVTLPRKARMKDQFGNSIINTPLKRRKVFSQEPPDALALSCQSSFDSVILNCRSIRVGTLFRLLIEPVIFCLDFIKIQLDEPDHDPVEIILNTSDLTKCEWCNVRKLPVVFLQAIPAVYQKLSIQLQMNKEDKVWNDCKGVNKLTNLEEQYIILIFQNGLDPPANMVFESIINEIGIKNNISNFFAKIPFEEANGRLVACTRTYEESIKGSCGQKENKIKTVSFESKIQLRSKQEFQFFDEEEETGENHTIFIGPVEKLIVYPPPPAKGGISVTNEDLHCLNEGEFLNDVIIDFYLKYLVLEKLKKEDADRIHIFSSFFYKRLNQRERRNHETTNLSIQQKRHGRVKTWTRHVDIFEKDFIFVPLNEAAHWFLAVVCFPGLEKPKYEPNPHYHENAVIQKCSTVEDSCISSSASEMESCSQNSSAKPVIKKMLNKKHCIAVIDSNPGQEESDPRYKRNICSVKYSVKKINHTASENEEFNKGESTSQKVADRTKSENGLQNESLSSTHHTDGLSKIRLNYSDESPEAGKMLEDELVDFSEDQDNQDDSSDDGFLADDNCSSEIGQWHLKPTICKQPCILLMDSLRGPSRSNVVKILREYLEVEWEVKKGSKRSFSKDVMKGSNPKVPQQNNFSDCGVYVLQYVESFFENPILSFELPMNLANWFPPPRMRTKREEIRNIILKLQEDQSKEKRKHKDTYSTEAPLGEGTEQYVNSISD

[11] = blockers of bursicon-stimulated LGR2 cAMP reporter – cell-based, HEK293, CRE-luciferase reporter, cherry pick, set 2, dose response (AID 743343); type: functional;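 further: transfected cells were stimulated with diluted bursicon conditioned medium after compound addition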
[12] = A549 cell cytotoxicity, dose response, cytotoxicity control, plate reader, cherry-pick, antagonist series (AID 743412); type: functional, cell-based
[13] = toxicity toward HepG2 liver cells – cell-based, plate reader, cherry-pick, antagonist series, cytotoxicity control, dose response (AID 743416); type: functional
[14] = viability loss in HEK293 cells – cell-based, plate reader, cherry-picked samples, cytotoxicity control, dose response (AID 743446); type: functional

## Cc1cc(C)n(CC(O)CN2c3ccccc3Sc3ccccc32)n1 (centres undefined)
[1]
  IC50: > 100 µM (active)
[2]
  CC50: 100 µM (active)
[3]
  IC50: 82.6 µM (active)

## CCOc1cccc(CNc2ccc(O)cc2)c1OCc1ccccc1Cl
[4]
  CC50: 23 µM (active)
Vero
  CC50: > 40 µM (active)

## Cc1ccc(NC(=O)CSc2nnc(C3CCCCC3)n2N)cc1F
[1]
  IC50: > 100 µM (active)

## CCN(CC)C(=O)CCNS(=O)(=O)c1ccc(C)cc1
Cytochrome P450 1A2
  AC50: 28.2 µM (inconclusive)
Cytochrome P450 2C9
  AC50: inconclusive
Cytochrome P450 3A4
  AC50: 25.1 µM (inconclusive)
[1]
  IC50: > 100 µM (active)

## O=C(NNC(=O)c1ccccc1O)c1ccc(-c2ccc([N+](=O)[O-])cc2)o1
[4]
  CC50: 15.3 µM (active)
[5]
  EC50: > 38 µM (not active)
[6]
  EC50: > 150 µM (inactive)
Albumin
  IC50: > 94.1 µM (inactive)

## O=C(OC(C(=O)NCc1cccs1)c1ccccc1Cl)c1ccco1 (centres undefined)
[4]
  CC50: > 40 µM (active)

## COC(=O)Cc1cc(O)n2nc(C)cc2n1
[1]
  IC50: > 100 µM (active)

## Cc1ccc(-c2csc(NC(=O)c3ccc(-c4ccccc4)cc3)n2)o1
[1]
  IC50: > 100 µM (active)

## COc1ccccc1C(=O)C1CCCN(Cc2ccc3c(c2)OCCO3)C1 (centres undefined)
[4]
  CC50: > 40 µM (active)

## O=C(O)CN1C(=O)CSc2ccccc21
[1]
  IC50: > 100 µM (active)

## C/C(O)=C1/C(=O)N(C)C(=S)N(c2ccccc2)C1=O
[1]
  IC50: > 100 µM (active)

## Cn1c(-c2ccccc2)cc2onc(-c3ccccc3)c2c1=O
Caspase-3
  IC50: 2.4 µM (active)
[7]
  IC50: 1.14 µM (active)
[8]
  IC50: 3.11 µM (active)
[9]
  AC50: 3.66 µM (active)
[10]
  IC50: 1.51 µM (active)
[11]
  AC50: 3.08 µM (active)
[12]
  AC50: > 52 µM (inactive)
[13]
  AC50: 34.4 µM (active)
[14]
  AC50: 51.9 µM (active)
